From publication PMC11357256, “Selectivity Screening and Structure–Cytotoxic Activity Observations of Selected Oleanolic Acid (OA)-Type Saponins from the Amaranthaceae Family on a Wiade Panel of Human Cancer Cell Lines” (Molecules, 2024)

Legend:
MDA-MB-231 = experiment: MTT cell viability assay, MDA-MB-231 breast adenocarcinoma cells; format: cell-based; conditions: Homo sapiens
Text: (§1) Cell lines used in the study were grouped as follows: skin panel (melanomas: HTB140, derived from metastatic site: lymph node, ATCC Hs 294 T; malignant A375, ATCC CRL-1619; stage I primary WM793, RRID:CVCL 8787; skin keratinocytes HaCaT); prostate panel (prostate carcinomas: Du145, derived from metastatic site: brain, ATCC HTB-81; grade IV PC3, derived from metastatic site: bone, ATCC CRL-1435, LNCaP, derived from the metastatic site: lymph node, ATCC CRL-1740; prostate epithelial, PNT2, ECACC 95012613); gastrointestinal panel (colorectal adenocarcinomas: Caco2, ATCC HTB-37, HT29, ATCC HTB-38, DLD-1, ATCC CCL-221, HCT116, ATCC CCL-247, and colon epithelial cells CCD 841 CoN, ATCC CRL-1790; hepatocellular carcinoma HepG2, ATCC HB-8065); thyroid panel (follicular thyroid carcinoma FTC133, ECACC 9406090, undifferentiated thyroid carcinoma 8505C, ECACC 94090184, papillary thyroid carcinoma TPC-1, SCC147, normal thyroid follicular epithelial Nthy-ori 3–1, ECACC 90011609); and breast panel (ER-positive breast adenocarcinoma MCF7, ATCC HTB-22; ER-negative breast adenocarcinoma MDA-MB-231, ATCC HTB-26; breast epithelial MCF10A, ATCC CRL-10317). Cells were grown under standard conditions (37 °C, 5% CO2, relative humidity), and culture media (DMEM/F12 for PNT2, WM 793, HT29, PC3, FTC133, 8505 C, MDA-MB-231, TPC-1; DMEM Low Glucose for DU145; DMEM High Glucose for HTB140, A375, HaCaT; MEM with NEAA for Caco2 and MCF7; RPMI1640 with sodium pyruvate for LNCaP; DMEM/F12 with 20 ng/mL epidermal growth factor (EGF), 10 μg/mL insulin, 0.5 μg/mL hydrocortisone, 100 ng/mL cholera toxin) for MCF10A) supplemented with 10% fetal bovine serum (FBS) or 5% donor horse serum for MCF10A, and 1% antibiotics solution (10,000 U penicillin and 10 mg streptomycin/mL) […], as previously described. All cell lines, culture media, and supplements were from Sigma-Aldrich (Germany).
(§2) The cells were seeded in 96-well plates (1.5 × 10^4 cells/well). After 24 h, fresh medium was added, containing the tested compounds (0.5–100 μg/mL) and incubated for 24 or 48 h. Cell viability was determined by MTT assay, according to the manufacturer’s instructions, as described previously. Each experiment was performed in triplicate. The absorbance was measured at 570 nm using a Biotek Synergy microplate reader (BioTek Instruments Inc., Winooski, VT, USA). Cell viability was expressed as a percent of control (untreated cells). Doxorubicin was used as a reference drug.

HCT116 = experiment: MTT cell viability assay, HCT116 colon cancer cells; format: cell-based; conditions: Homo sapiens, HCT-116
Text: as §1, §2

HepG2 = experiment: MTT cell viability assay, HepG2 hepatocellular carcinoma cells; format: cell-based; conditions: Homo sapiens
Text: as §1, §2

PNT2 = experiment: MTT cell viability assay, PNT2 normal prostate epithelial cells; format: cell-based; conditions: Homo sapiens
Text: as §1, §2

8505C = experiment: MTT cell viability assay, 8505C undifferentiated thyroid carcinoma cells; format: cell-based, human; conditions: for IC50: Homo sapiens, 8505C; for Selectivity Index (SI): IC50 Nthy-ori 3-1 / IC50 8505C
Text: as §1, §2
(§3) The selectivity index (SI) was calculated from the following formula:SI = IC50 of compound in a normal cell line/IC50 of compound in cancer cell line.IC50, half maximal inhibitory concentration, is a concentration required to kill 50% of the cells.

DLD-1 = experiment: MTT cell viability assay, DLD-1 colon cancer cells; format: cell-based; conditions: Homo sapiens
Text: as §1, §2

HT29 = experiment: MTT cell viability assay, HT29 colorectal adenocarcinoma cells; format: cell-based; conditions: Homo sapiens, HT-29
Text: as §1, §2

MCF7 = experiment: MTT cell viability assay, MCF7 breast adenocarcinoma cells; format: cell-based; conditions: Homo sapiens
Text: as §1, §2

A375 = experiment: MTT cell viability assay, A375 malignant melanoma cells; format: cell-based, human; conditions: for IC50: Homo sapiens, A-375
Text: as §1, §2, §3

PC3 = experiment: MTT cell viability assay, PC3 prostate carcinoma cells; format: cell-based; conditions: Homo sapiens, PC-3
Text: as §1, §2

MCF10A = experiment: MTT cell viability assay, MCF10A normal breast epithelial cells; format: cell-based; conditions: Homo sapiens, MCF-10A
Text: as §1, §2

WM793 = experiment: MTT cell viability assay, WM793 primary melanoma cells; format: cell-based, human; conditions: for IC50: Homo sapiens
Text: as §1, §2, §3

Caco-2 = experiment: MTT cell viability assay, Caco-2 colon cancer cells; format: cell-based; conditions: Homo sapiens
Text: as §1, §2

LNCaP = experiment: MTT cell viability assay, LNCaP prostate adenocarcinoma cells; format: cell-based; conditions: Homo sapiens
Text: as §1, §2

FTC133 = experiment: MTT cell viability assay, FTC133 follicular thyroid carcinoma cells; format: cell-based, human; conditions: for IC50: Homo sapiens, FTC-133
Text: as §1, §2, §3

TPC-1 = experiment: MTT cell viability assay, TPC-1 papillary thyroid carcinoma cells; format: cell-based, human; conditions: for IC50: Homo sapiens, TPC1
Text: as §1, §2, §3

Nthy-ori 3-1 = experiment: MTT cell viability assay, Nthy-ori 3-1 normal thyroid epithelial cells; format: cell-based; conditions: Homo sapiens
Text: as §1, §2

HTB-140 = experiment: MTT cell viability assay, HTB-140 metastatic melanoma cells; format: cell-based, human; conditions: for IC50: Homo sapiens
Text: as §1, §2, §3

CCD 841 CoN = experiment: MTT cell viability assay, CCD 841 CoN normal colon epithelial cells; format: cell-based; conditions: Homo sapiens
Text: as §1, §2

HaCaT = experiment: MTT cell viability assay, HaCaT keratinocytes; format: cell-based; conditions: Homo sapiens
Text: as §1, §2

Du-145 = experiment: MTT cell viability assay, Du-145 prostate carcinoma cells; format: cell-based; conditions: Homo sapiens
Text: as §1, §2

CC1(C)CC[C@]2(C(=O)O)CC[C@]3(C)C(=CC[C@@H]4[C@@]5(C)CC[C@H](O)C(C)(C)[C@@H]5CC[C@]43C)[C@@H]2C1 [OA, oleanolic acid]
IC50 (MDA-MB-231; MDA-MB-231, 24 h): > 100 µg/mL | IC50 (MDA-MB-231; MDA-MB-231, 48 h): 38.5 µg/mL | IC50 (HCT116; HCT116, 24 h): 25.6 µg/mL | IC50 (HCT116; HCT116, 48 h): 18.5 µg/mL | IC50 (HepG2; HepG2, 24 h): 51.5 µg/mL | IC50 (HepG2; HepG2, 48 h): 10.7 µg/mL | IC50 (PNT2; 24 h): > 100 µg/mL | IC50 (PNT2; 48 h): > 100 µg/mL | IC50 (8505C; 24 h): 19.5 µg/mL | IC50 (8505C; 48 h): 11.3 µg/mL | Selectivity Index (SI) (8505C; 24 h): 4.8 | Selectivity Index (SI) (8505C; 48 h): 6.4 | IC50 (DLD-1; DLD-1, 24 h): 48.7 µg/mL | IC50 (DLD-1; DLD-1, 48 h): 24.5 µg/mL | IC50 (HT29; HT29, 24 h): > 100 µg/mL | IC50 (HT29; HT29, 48 h): > 100 µg/mL | IC50 (MCF7; MCF7, 24 h): > 100 µg/mL | IC50 (MCF7; MCF7, 48 h): 67 µg/mL | IC50 (A375; A375, 24 h): 2.2 µg/mL | IC50 (A375; A375, 48 h): 0.9 µg/mL | Selectivity Index (SI) (A375; IC50 HaCaT / IC50 A375, 24 h): 5.2 | IC50 (PC3; PC3, 24 h): > 100 µg/mL | IC50 (PC3; PC3, 48 h): > 100 µg/mL | IC50 (MCF10A; 24 h): > 100 µg/mL | IC50 (MCF10A; 48 h): > 100 µg/mL | IC50 (WM793; WM793, 24 h): 2.8 µg/mL | IC50 (WM793; WM793, 48 h): 1.2 µg/mL | Selectivity Index (SI) (WM793; IC50 HaCaT / IC50 WM793, 24 h): 4.0 | Selectivity Index (SI) (WM793; IC50 HaCaT / IC50 WM793, 48 h): 6.0 | IC50 (Caco-2; Caco-2, 24 h): 13 µg/mL | IC50 (Caco-2; Caco-2, 48 h): 8.3 µg/mL | IC50 (LNCaP; 24 h): > 100 µg/mL | IC50 (LNCaP; 48 h): > 100 µg/mL | IC50 (FTC133; FTC133, 24 h): 13.5 µg/mL | IC50 (FTC133; FTC133, 48 h): 4.9 µg/mL | Selectivity Index (SI) (FTC133; IC50 Nthy-ori 3-1 / IC50 FTC133, 24 h): 6.99 | Selectivity Index (SI) (FTC133; IC50 Nthy-ori 3-1 / IC50 FTC133, 48 h): 14.6 | IC50 (TPC-1; TPC-1, 24 h): 36.6 µg/mL | IC50 (TPC-1; TPC-1, 48 h): 30 µg/mL | Selectivity Index (SI) (TPC-1; IC50 Nthy-ori 3-1 / IC50 TPC-1, 24 h): 2.6 | Selectivity Index (SI) (TPC-1; IC50 Nthy-ori 3-1 / IC50 TPC-1, 48 h): 2.4 | IC50 (Nthy-ori 3-1; 24 h): 94.4 µg/mL | IC50 (Nthy-ori 3-1; 48 h): 71.6 µg/mL | IC50 (HTB-140; HTB-140, 24 h): 51.4 µg/mL | IC50 (HTB-140; HTB-140, 48 h): 29.5 µg/mL | Selectivity Index (SI) (HTB-140; IC50 HaCaT / IC50 HTB-140, 24 h): 0.2 | Selectivity Index (SI) (HTB-140; IC50 HaCaT / IC50 HTB-140, 48 h): 0.2 | IC50 (CCD 841 CoN; 24 h): > 100 µg/mL | IC50 (CCD 841 CoN; 48 h): > 100 µg/mL | IC50 (HaCaT; 24 h): 11.2 µg/mL | IC50 (HaCaT; 48 h): 7.5 µg/mL | IC50 (Du-145; DU-145, 24 h): 23.4 µg/mL | IC50 (Du-145; DU-145, 48 h): 12.2 µg/mL
